We go through 17 compounds from PMC11993615, “Design, synthesis and optimization of TarO inhibitors as multifunctional antibiotics against Methicillin-resistant Staphylococcus aureus” (npj Antimicrobials and Resistance, 2025).

In test [1] the target is TarO (Staphylococcus aureus, UniProt Q2G060). It is filed as cell-based. Conditions: for IC50: relative inhibition rate against the wild-type strain, OD600 at 20 h, n.a. = IC50 cannot be calculated within the test range; for TarO inhibitory activity (in words): SAR discussion.
In test [2] the test system is USA300 LAC. The experiment in a line: Checkerboard MIC assay with oxacillin. The test is classed as cell-based, Staphylococcus aureus. The note with it: for FICI / Sensitization fold / Minimum sensitization concentration: USA300 LAC/oxacillin; for Minimum sensitization concentration: test range 0.03–32 μg/mL. The protocol: (§1) In the checkerboard assay, concentrations of antibiotics, oxacillin and imipenem, and TarO inhibitors were simultaneously varied across columns and the rows, respectively. […] The range of each compound chosen for the checkerboard assay was according to their MIC value. […] For each clear well observed on the checkerboard MIC plate, the fractional inhibitory concentration index (FICI) was calculated as follows: FICI = FIC (inhibitor) + FIC (antibiotic) = MIC inhibitor in combination/ MIC inhibitor alone + MIC antibiotic in combination/MIC antibiotic alone. FIC = Fractional Inhibitory Concentration. A FICI value of < 0.5 indicates synergy, a value between 0.5 and 2 indicates additivity or indifference, and a value > 2 indicates antagonism.

Test [3] concerns HS663. The test is described as follows: Checkerboard MIC assay with imipenem. The test is classed as cell-based, Staphylococcus aureus. The note with it: imipenem used alone, HS663. The protocol: as §1
Test [4] deals with USA400 MW2. The test is described as follows: Checkerboard MIC assay with oxacillin. The test is classed as cell-based, Staphylococcus aureus. Conditions: oxacillin used alone, USA400 MW2. How it is done: as §1
[5] abbreviates: at maximum sensitization concentration.
The mark [6] stands for this setting: at minimum sensitization concentration.
Where [7] appears, read: Staphylococcus aureus, read-out: MIC of β-lactam, Individual.

For the compound `C[C@H]1[C@@H](c2cc(C(F)(F)F)cc(C(F)(F)F)c2)OC(=O)N1C(=O)OCc1cccc2ccccc12` [Compound 1], in test [1], the IC50 is 0.161 µM. In test [2] (setting [5]), the FICI was below 0.07 and the Sensitization fold was determined as 16. Moreover, the Sensitization fold in test [2] (setting [6]) is reported as 8. Moreover, the Minimum sensitization concentration in test [2] worked out at 0.06 µg/mL.
With `C[C@H]1[C@@H](c2cc(C(F)(F)F)cc(C(F)(F)F)c2)OC(=O)N1C(=O)SCc1cccc2ccccc12` [Compound 2], in test [1], the “TarO inhibitory activity (in words)” value was “potent TarO inhibitory activity” and the IC50 is 0.0974 µM. For the same compound, in test [2] (setting [5]), the FICI is reported as below 0.04 and the Sensitization fold was found to be 32. Further, in test [2] (setting [6]), the Sensitization fold is 8. For the same compound, in test [2], the Minimum sensitization concentration stood at 0.06 µg/mL.
As for `C[C@H]1[C@@H](c2cc(C(F)(F)F)cc(C(F)(F)F)c2)OC(=O)N1C(=S)NCc1cccc2ccccc12` [Compound 5], in test [1], the IC50 is 8.98 µM. In test [2] (setting [5]), the FICI is given as below 0.13 and the Sensitization fold amounted to 8. For the same compound, the Sensitization fold in test [2] (setting [6]) was 8. Further, the Minimum sensitization concentration in test [2] amounted to 0.25 µg/mL.
`C[C@H]1[C@@H](c2cc(C(F)(F)F)cc(C(F)(F)F)c2)OC(=O)N1C(=O)N1CC(c2cccc3ccccc23)C1` [Compound 6]: the “TarO inhibitory activity (in words)” value in test [1] is given as “loss of activity”.
Turning to `C[C@H]1[C@@H](c2cc(C(F)(F)F)cc(C(F)(F)F)c2)OC(=O)N1C(=O)CNc1cccc2ccccc12` [Compound 7], the IC50 in test [1] is 7.19 µM.
For `C[C@H]1[C@@H](c2cc(C(F)(F)F)cc(C(F)(F)F)c2)OC(=O)N1C(=O)CCC1CCCCC1` [Compound 8], the “TarO inhibitory activity (in words)” value in test [1] is “inactive”.
With `C[C@H]1[C@@H](c2cc(C(F)(F)F)cc(C(F)(F)F)c2)OC(=O)N1C(=O)CCN1CCS(=O)(=O)c2ccccc21` [Compound 9], in test [1], the “TarO inhibitory activity (in words)” value is reported as “potent inhibition activity comparable to Tarocin A” and the IC50 was 6.32 µM.
Consider `C[C@H]1[C@@H](c2cc(C(F)(F)F)cc(C(F)(F)F)c2)OC(=O)N1C(=O)CCN1CCC(=O)c2ccccc21` [Compound 12], for which, in test [1], the IC50 was 5.05 µM.
On the same count and under the same terms, the same measure for `COc1cc(C(F)(F)F)cc([C@H]2OC(=O)N(C(=O)CCn3ccc(=O)c4ccccc43)[C@H]2C)n1` [Compound 17b]: 22.4 µM; for `C[C@H]1[C@@H](c2cc(F)cc(C(F)(F)F)c2)OC(=O)N1C(=O)CCn1ccc(=O)c2ccccc21` [Compound 17c]: 27.8 µM.
Consider `C[C@H]1[C@@H](c2cccc(C(F)(F)F)c2)OC(=O)N1C(=O)CCn1ccc(=O)c2ccccc21` [Compound 17d], for which the IC50 in test [1] is 30.2 µM.
Take `C[C@H]1[C@@H](c2cc(C(F)(F)F)cc(C(F)(F)F)c2)OC(=O)N1C(=O)CCN1CCS(=O)(=O)CC1` [Compound 19]: the “TarO inhibitory activity (in words)” value in test [1] is recorded as “lost its activity”.
With `C[C@H]1[C@@H](c2cc(C(F)(F)F)cc(C(F)(F)F)c2)OC(=O)N1C(=O)CCc1cccc2c1OCC/C2=N\O` [Compound 23], the IC50 in test [1] is 7.54 µM.
Still for that read-out and setting: under `C[C@H]1[C@@H](c2cccc(C(F)(F)F)c2)OC(=O)N1C(=O)NCc1cncc2ccccc12` [Tarocin A2, reference compound] stands 24.2 µM.
Regarding `C[C@@H](O)[C@H]1C(=O)N2C(C(=O)O)=C(SCCN=CN)C[C@H]12` [imipenem, reference compound], the MIC in test [3] (setting [7]) turned out to be 64 µg/mL. The “MIC of β-lactam, Individual” value in test [3] is 64 µg/mL.
With `Cc1onc(-c2ccccc2)c1C(=O)N[C@@H]1C(=O)N2[C@@H]1SC(C)(C)[C@@H]2C(=O)O` [oxacillin, reference compound], the MIC in test [4] (setting [7]) was found to be 16 µg/mL; in test [2] (Staphylococcus aureus, oxacillin used alone, USA300 LAC, read-out: MIC of β-lactam, Individual), 64 µg/mL. Further, the “MIC of β-lactam, Individual” value in test [4] was 16 µg/mL; in test [2] (oxacillin used alone, USA300 LAC), 64 µg/mL.
With tunicamycin [reference compound], the “induction of vraXpro-lux expression” value in test [1] (MRSA USA300 LAC strain, exponential growth phase) is listed as “concentration-dependent manner”. Also, the “bacterial growth density (OD600)” value in test [1] (post-exponential growth phase) was “effectively reduced the bacterial growth density”.
